{"source": "paper PMC11233931", "about": "“Remodeling tumor‐associated macrophage for anti‐cancer effects by rational design of irreversible inhibition of mitogen‐activated protein kinase‐activated protein kinase 2” (MedComm, 2024)", "experiment_in_all_cases": "Eurofins kinase selectivity profile against 380 other human recombinant kinases (Table S2)", "type_in_all_cases": "biochemical", "key": {"[1]": {"molecular_target": "T1, 380 human recombinant protein kinases (Homo sapiens, UniProt Q05397)", "T1 construct": "purchased Eurofins (Celle Lévescault)", "settings": "FAK(h), read-out: Inhibition rate", "how_it_was_run": "(§1)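 Values come from a contract kinase-profiling service that tested the compound at multiple concentrations across 380 recombinant human kinases, as an off-target check against the MK2 activity.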"}, "[2]": {"molecular_target": "T2, 380 human recombinant protein kinases (Homo sapiens, UniProt Q15835)", "T2 construct": "purchased Eurofins (Celle Lévescault)", "T2 sequence (Q15835 1-563)": "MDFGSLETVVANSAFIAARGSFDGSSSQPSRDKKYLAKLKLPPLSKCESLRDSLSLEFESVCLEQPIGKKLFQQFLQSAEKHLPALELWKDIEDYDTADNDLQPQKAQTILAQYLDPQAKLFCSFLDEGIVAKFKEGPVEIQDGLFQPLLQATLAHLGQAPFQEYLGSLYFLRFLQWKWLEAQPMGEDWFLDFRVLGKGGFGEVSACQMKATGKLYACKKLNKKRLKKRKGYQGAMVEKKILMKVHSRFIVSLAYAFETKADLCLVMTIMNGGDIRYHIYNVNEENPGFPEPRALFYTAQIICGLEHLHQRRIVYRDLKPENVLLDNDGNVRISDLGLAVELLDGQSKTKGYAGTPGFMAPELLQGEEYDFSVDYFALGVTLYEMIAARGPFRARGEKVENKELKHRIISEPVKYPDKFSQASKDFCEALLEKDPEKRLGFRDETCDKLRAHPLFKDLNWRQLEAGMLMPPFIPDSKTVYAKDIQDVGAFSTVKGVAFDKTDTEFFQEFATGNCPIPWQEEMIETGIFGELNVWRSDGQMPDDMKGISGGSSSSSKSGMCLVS", "settings": "GRK1(h), read-out: Inhibition rate", "how_it_was_run": "as §1"}, "[3]": {"molecular_target": "T3, 380 human recombinant protein kinases (Homo sapiens, UniProt Q00532)", "T3 construct": "purchased Eurofins (Celle Lévescault)", "settings": "CDKL1(h), read-out: Inhibition rate", "how_it_was_run": "as §1"}, "[4]": {"molecular_target": "T4, 380 human recombinant protein kinases (Homo sapiens, UniProt Q9UQB9)", "T4 construct": "purchased Eurofins (Celle Lévescault)", "T4 sequence (Q9UQB9 1-309)": "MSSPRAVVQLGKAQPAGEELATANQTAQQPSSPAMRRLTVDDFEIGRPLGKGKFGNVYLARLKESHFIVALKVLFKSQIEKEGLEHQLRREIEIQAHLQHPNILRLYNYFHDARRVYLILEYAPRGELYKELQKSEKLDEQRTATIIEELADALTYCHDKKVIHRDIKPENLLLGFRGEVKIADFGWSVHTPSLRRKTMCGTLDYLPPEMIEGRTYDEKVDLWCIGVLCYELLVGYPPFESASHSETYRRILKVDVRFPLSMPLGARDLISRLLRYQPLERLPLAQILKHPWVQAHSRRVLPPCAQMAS", "settings": "Aurora-C(h), read-out: Inhibition rate", "how_it_was_run": "as §1"}, "[5]": {"molecular_target": "T5, 380 human recombinant protein kinases (Homo sapiens, UniProt P42680)", "T5 construct": "purchased Eurofins (Celle Lévescault)", "T5 sequence (P42680 1-631)": "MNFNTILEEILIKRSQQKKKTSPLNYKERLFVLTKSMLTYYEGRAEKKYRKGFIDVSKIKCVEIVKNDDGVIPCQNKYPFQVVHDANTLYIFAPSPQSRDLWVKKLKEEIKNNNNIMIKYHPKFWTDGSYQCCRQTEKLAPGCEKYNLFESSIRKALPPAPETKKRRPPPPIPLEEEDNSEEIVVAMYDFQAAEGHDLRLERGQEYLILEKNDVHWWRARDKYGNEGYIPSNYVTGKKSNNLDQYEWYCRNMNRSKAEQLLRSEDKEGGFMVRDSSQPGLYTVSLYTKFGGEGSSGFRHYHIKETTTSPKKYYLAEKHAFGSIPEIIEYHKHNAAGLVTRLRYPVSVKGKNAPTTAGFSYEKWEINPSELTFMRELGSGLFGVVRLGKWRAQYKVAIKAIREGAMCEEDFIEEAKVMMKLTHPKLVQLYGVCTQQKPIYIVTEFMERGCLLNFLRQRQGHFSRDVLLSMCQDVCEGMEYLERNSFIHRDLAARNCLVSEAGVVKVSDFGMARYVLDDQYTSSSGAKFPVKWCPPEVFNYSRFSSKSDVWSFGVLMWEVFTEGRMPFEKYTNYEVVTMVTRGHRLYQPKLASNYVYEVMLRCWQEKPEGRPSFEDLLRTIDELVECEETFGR", "settings": "Tec(h) activated, read-out: Inhibition rate (%)", "how_it_was_run": "as §1"}, "[6]": {"molecular_target": "T6, 380 human recombinant protein kinases (Homo sapiens, UniProt P42336, E545K)", "T6 construct": "purchased Eurofins (Celle Lévescault)", "T6 sequence (P42336 whole entry E545K)": "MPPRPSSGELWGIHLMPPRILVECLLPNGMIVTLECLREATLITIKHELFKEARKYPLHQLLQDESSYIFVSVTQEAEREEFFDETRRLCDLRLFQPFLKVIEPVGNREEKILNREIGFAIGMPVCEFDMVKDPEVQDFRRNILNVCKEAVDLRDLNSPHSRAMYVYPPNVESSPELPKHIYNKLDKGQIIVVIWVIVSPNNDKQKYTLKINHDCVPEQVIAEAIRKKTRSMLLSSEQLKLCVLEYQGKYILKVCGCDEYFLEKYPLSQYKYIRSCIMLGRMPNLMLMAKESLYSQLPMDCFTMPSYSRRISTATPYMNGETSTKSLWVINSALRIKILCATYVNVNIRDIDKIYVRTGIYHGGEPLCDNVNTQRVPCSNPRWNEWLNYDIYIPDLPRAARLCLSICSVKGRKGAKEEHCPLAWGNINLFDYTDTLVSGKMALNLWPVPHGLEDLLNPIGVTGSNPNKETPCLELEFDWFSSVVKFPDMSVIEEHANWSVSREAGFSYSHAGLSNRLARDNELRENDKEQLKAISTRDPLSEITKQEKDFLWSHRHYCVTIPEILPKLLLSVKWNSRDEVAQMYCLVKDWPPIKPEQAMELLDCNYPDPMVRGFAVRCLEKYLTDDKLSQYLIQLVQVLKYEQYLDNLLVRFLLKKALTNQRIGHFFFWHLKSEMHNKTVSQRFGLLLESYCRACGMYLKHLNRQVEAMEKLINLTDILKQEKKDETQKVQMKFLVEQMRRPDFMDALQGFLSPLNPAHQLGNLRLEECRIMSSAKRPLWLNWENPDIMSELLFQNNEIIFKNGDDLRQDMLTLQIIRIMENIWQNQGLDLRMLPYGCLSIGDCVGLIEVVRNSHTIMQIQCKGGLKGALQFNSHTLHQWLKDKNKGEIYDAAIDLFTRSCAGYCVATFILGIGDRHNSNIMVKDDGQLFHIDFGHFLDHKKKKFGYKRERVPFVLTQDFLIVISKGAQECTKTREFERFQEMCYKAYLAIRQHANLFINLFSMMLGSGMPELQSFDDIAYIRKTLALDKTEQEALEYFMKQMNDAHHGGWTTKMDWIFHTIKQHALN", "settings": "PI3 Kinase (p110α(E545K)/p85α)(h), read-out: Inhibition rate (%)", "how_it_was_run": "as §1"}, "[7]": {"molecular_target": "T7, 380 human recombinant protein kinases (Homo sapiens, UniProt Q9HBH9)", "T7 construct": "purchased Eurofins (Celle Lévescault)", "T7 sequence (Q9HBH9 whole entry)": "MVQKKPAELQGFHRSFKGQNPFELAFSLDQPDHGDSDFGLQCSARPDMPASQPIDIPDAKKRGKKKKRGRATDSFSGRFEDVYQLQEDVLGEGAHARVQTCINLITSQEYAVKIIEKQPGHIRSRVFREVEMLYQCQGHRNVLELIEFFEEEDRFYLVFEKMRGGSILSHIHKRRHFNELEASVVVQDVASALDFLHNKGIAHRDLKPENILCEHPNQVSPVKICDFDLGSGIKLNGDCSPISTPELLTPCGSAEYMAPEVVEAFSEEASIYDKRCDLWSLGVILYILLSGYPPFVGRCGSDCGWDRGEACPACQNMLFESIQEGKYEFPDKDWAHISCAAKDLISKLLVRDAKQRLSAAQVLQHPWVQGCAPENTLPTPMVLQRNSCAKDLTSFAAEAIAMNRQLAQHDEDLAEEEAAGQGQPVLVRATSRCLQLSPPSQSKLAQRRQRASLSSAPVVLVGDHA", "settings": "Mnk2(h), read-out: Inhibition rate", "how_it_was_run": "as §1"}}}
{"smiles": "C=CC(=O)Nc1cc(-c2cc(-c3cc4c([nH]3)CCNC4=O)ccn2)ccc1OC(F)(F)F", "note": "[compound 11]", "values": [{"measurement": "inhibition at 0.01 µM", "setting": "[1]; 10 nM", "result": -10, "unit": "%"}, {"measurement": "inhibition at 0.1 µM", "setting": "[1]; 100 nM", "result": -1, "unit": "%"}, {"measurement": "inhibition at 1 µM", "setting": "[1]; 1000 nM", "result": 1, "unit": "%"}, {"measurement": "inhibition at 0.01 µM", "setting": "[2]; 10 nM", "result": -6, "unit": "%"}, {"measurement": "inhibition at 0.1 µM", "setting": "[2]; 100 nM", "result": -4, "unit": "%"}, {"measurement": "inhibition at 1 µM", "setting": "[2]; 1000 nM", "result": -1, "unit": "%"}, {"measurement": "inhibition at 0.01 µM", "setting": "[3]; 10 nM", "result": 26, "unit": "%"}, {"measurement": "inhibition at 0.1 µM", "setting": "[3]; 100 nM", "result": 47, "unit": "%"}, {"measurement": "inhibition at 1 µM", "setting": "[3]; 1000 nM", "result": 49, "unit": "%"}, {"measurement": "inhibition at 0.01 µM", "setting": "[4]; 10 nM", "result": 2, "unit": "%"}, {"measurement": "inhibition at 0.1 µM", "setting": "[4]; 100 nM", "result": -5, "unit": "%"}, {"measurement": "inhibition at 1 µM", "setting": "[4]; 1000 nM", "result": 6, "unit": "%"}, {"measurement": "inhibition at 0.01 µM", "setting": "[5]; 10 nM", "result": 8, "unit": "%"}, {"measurement": "inhibition at 0.1 µM", "setting": "[5]; 100 nM", "result": 11, "unit": "%"}, {"measurement": "inhibition at 1 µM", "setting": "[5]; 1000 nM", "result": 17, "unit": "%"}, {"measurement": "inhibition at 0.01 µM", "setting": "[6]; 10 nM", "result": 2, "unit": "%"}, {"measurement": "inhibition at 0.1 µM", "setting": "[6]; 100 nM", "result": 2, "unit": "%"}, {"measurement": "inhibition at 1 µM", "setting": "[6]; 1000 nM", "result": 4, "unit": "%"}, {"measurement": "inhibition at 0.01 µM", "setting": "[7]; 10 nM", "result": 4, "unit": "%"}, {"measurement": "inhibition at 0.1 µM", "setting": "[7]; 100 nM", "result": 13, "unit": "%"}, {"measurement": "inhibition at 1 µM", "setting": "[7]; 1000 nM", "result": 61, "unit": "%"}]}
